What all share (assay type): cell-based
The subject of assay [1] is Escherichia coli ATCC 25922. Kind of assay: microbe, parasite or virus in culture. The protocol: (§1) The inoculum was then diluted in CaMHB to give a mid-log phase cultures and 40 μL was added to each well from column 1 to column 18, and column 23. 45 μL of the inoculum was added to each well from column 19 to column 22 to give the final cell density of 5×10^5 CFU/mL. The plates were incubated at 37° C. for 18-20h.
(§2) Optical density was read at 600 nm (OD600) using Gen5 Spectrophotometer. […] Analysis was performed using Microsoft Excel.

In assay [2] the test system is Acinetobacter baumannii ATCC 19606. The assay can be described thus: microbe, parasite or virus in culture. The protocol: as §1, §2
Assay [3] deals with Pseudomonas aeruginosa ATCC 27853. Kind of assay: microbe, parasite or virus in culture. Here is the method:
as §1, §2

Assay [4] relates to Klebsiella pneumoniae ATCC 700603. Kind of assay: microbe, parasite or virus in culture. The protocol:
as §1, §2

Assay [5] has as its system Acinetobacter baumannii ATCC 19606 (GN_034). The assay can be described thus: MIC micro-broth dilution assay (Example 1 method). The conditions noted are these: for MIC: Acinetobacter baumannii. On the technique in general: Dilution methods test growth across graded concentrations, often in twofold steps.
Experimental: (§7) The plates were covered and incubated at 37° C. for 18-20 h.
(§8) Optical density was read at 600 nm (OD600) using Tecan M1000 Pro Spectrophotometer. […] Analysis was performed using Microsoft Excel.
Assay [6] has as its system Klebsiella pneumoniae ATCC 700603. The assay can be described thus: MIC micro-broth dilution assay (Example 1 method). To be noted: for MIC: Klebsiella pneumoniae. The protocol:
Methods were as for Example 1. Cannabidiol was tested in combination with cefotetan.
Methods were as for Example 1. Cannabidiol was tested in combination with aztreonam.
Methods were as for Example 1. Cannabidiol was tested in combination with cefepime.
Methods were as for Example 1. Cannabidiol was tested in combination with octapeptin C4.
Methods were as for Example 1. Cannabidiol was tested in combination with Spero SPR206. The experiments were carried out three times.

In assay [7] the test system is Pseudomonas aeruginosa ATCC 27853 (GN_042). The assay can be described thus: MIC micro-broth dilution assay (Example 1 method). The conditions noted are these: for MIC: Pseudomonas aeruginosa.
Experimental: as §7, §8
The test system of assay [8] is Acinetobacter baumannii ATCC 19606 Type Strain (GN_034). The assay can be described thus: MIC broth microdilution, 96-well, visual reading (Example 11). The conditions noted are these: Example 11 Table 41; GN_034; n=4 replicates. The protocol: (§3) The experiment was performed to investigate the antimicrobial activity of cannabidiol (CBD) against an LPS deficient strain (GN_237 Acinetobacter baumannii, IpxA mutant; Lipid A deficient; obtained by colistin selection from base strain ATCC 19606) and its parent strain (GN_034, Acinetobacter baumannii, ATCC 19606).
(§4) All plates had flat bottom wells and were covered with low-evaporation lids.
(§5) Two biological replicates ×2 technical replicates were conducted on separate days (final n=4). Inhibition of bacterial growth was determined visually, where the MIC was recorded as the lowest compound concentration with no visible growth.

The subject of assay [9] is Acinetobacter baumannii AL1851, IpxA mutant; Lipid A deficient (GN_237). The assay is described as above. The protocol:
as §3, §4, §5

For assay [10], the system named is Escherichia coli ATCC 25922 (GN_001). The assay can be described thus: MIC micro-broth dilution assay (Example 1 method). To be noted: for MIC: Escherichia coli.
Experimental: as §7, §8
The subject of assay [11] is Pseudomonas aeruginosa FADDI-PA067 (GN_177), Polymyxin resistant. The assay can be described thus: MIC micro-broth dilution assay (Example 1 method). To be noted: GN_177. Here is the method:
(§6) Analysis was performed using Microsoft Excel.

Assay [12] deals with Escherichia coli HS71 (GN_110), CTX-M. Kind of assay: MIC micro-broth dilution assay (Example 1 method). To be noted: Example 9 Table 35, compound alone, replicates. Here is the method: as §6
For assay [13], the system named is Klebsiella pneumoniae BAA-2146 (GN_045), NDM-1. Kind of assay: MIC micro-broth dilution assay (Example 1 method). The conditions noted are these: Example 9 Table 35, compound alone, replicates, listed as MCC_000636. Here is the method: as §6
The subject of assay [14] is Enterobacter cloacae CI Patercon BoxNo: 79 (GN_016), MDR. The assay can be described thus: MIC micro-broth dilution assay (Example 1 method). The conditions noted are these: for Minimum Inhibitory Concentration (MIC): replicates, listed as MCC_000636. The protocol:
as §6

Assay [15] has as its system Acinetobacter baumannii 03.021.1 (GN_038), Colistin resistant. The assay can be described thus: MIC micro-broth dilution assay (Example 1 method). To be noted: for Minimum Inhibitory Concentration (MIC): replicates, listed as MCC_000636. Here is the method:
as §6

Assay [16] concerns Acinetobacter baumannii 03.021.1 (GN_039), Colistin resistant. The assay can be described thus: MIC micro-broth dilution assay (Example 1 method). To be noted: for Minimum Inhibitory Concentration (MIC): replicates, listed as MCC_000636. The protocol: as §6
[17] abbreviates: Example 10 Table 38, compound alone, replicates.
Setting [18] is: ATCC19606, read-out: Minimum Inhibitory Concentration (MIC), Example 5 Table 19, GN_034, compound alone, replicates.
[19] abbreviates: Example 5 Table 19, GN_034, compound alone, replicates.
Setting [20] is: Example 8 Table 31, compound alone.
Where [21] appears, read: Example 9 Table 35, compound alone.

Values after ≈ are worked out from the molar mass of the structure shown. Values joined by “and” are separate entries in the source; they are usually repeats but may differ in a detail not shown here. Equal values may be shown once. Read-outs that look alike come from different tables or passages of the source. Residues, ends and D or L forms follow the SMILES beside them.

With `CC(C)C[C@@H]1NC(=O)[C@@H](Cc2ccccc2)NC(=O)[C@H](CCN)NC(=O)[C@@H](NC(=O)[C@H](CCN)NC(=O)[C@@H](N)[C@@H](C)O)CCNC(=O)[C@H]([C@@H](C)O)NC(=O)[C@H](CCN)NC(=O)[C@H](CCN)NC1=O` [PMBN] (HELM PEPTIDE1{T.[Dab].[Dab].[Dab].[dF].L.[Dab].[Dab].T}$PEPTIDE1,PEPTIDE1,3:R3-9:R2$$$V2.0; N-terminus assumed; bridges inferred), the “antimicrobial activity alone” value in [1] (Example 10), in assay [2] (Example 10), in assay [3] (Example 10) and in assay [4] (Example 10) was “poor antimicrobial activity” throughout. In addition, the MIC in assay [1] (setting [17]), in assay [2] (setting [17]), in assay [3] (setting [17]) and in [4] (setting [17]) was >32 mg/L each time. Besides, the “MIC of PMBN” value in [1] (Example 10 Table 39), in [2] (Example 10 Table 39), in assay [3] (Example 10 Table 39) and in [4] (Example 10 Table 39) was >32 mg/L in each case.

With `C[C@H]1[C@H](NC(=O)/C(=N\OC(C)(C)C(=O)O)c2csc(N)n2)C(=O)N1S(=O)(=O)O` [Aztreonam], the MIC was 32 mg/L in assay [5] (ATCC19606, read-out: MIC of Aztreonam, Aztreonam alone); 32 mg/L in assay [5] (ATCC19606, read-out: MIC of aztreonam, Example 5 Table 20, GN_034); 16 mg/L (≈ 36.7 µM) in assay [5] (setting [18]); 64 mg/L in assay [6] (ATCC700603, read-out: MIC of Aztreonam, Aztreonam alone); 4 mg/L in assay [7] (ATCC27853, read-out: MIC of Aztreonam). For the same compound, the “Minimum Inhibitory Concentration (MIC)” value in assay [5] (setting [19]) came out at 16 mg/L.

Turning to Polymyxin B, the “MIC (Test results)” value in [8] was >128 mg/L; in assay [9] (Example 11 Table 41, GN_237, n=4 replicates), 128 mg/L. For the same compound, the “activity alone” value in assay [9] (Example 11, Lipid A deficient GN_237) is reported as “resistant”. The “Minimal Inhibitory Concentration (MIC)” value in assay [5] (Example 1 Table 3, GN_034, compound alone, replicates, listed as MCC_000636) is 1 mg/L and 0.5 mg/L; in assay [10] (Example 1 Table 3, GN_001, compound alone, replicates, listed as MCC_000636), 1 mg/L and 0.5 mg/L; in assay [7] (Example 1 Table 3, GN_042, compound alone, replicates), 1 mg/L. In addition, the “Minimum Inhibitory Concentration (MIC)” value was 0.25 mg/L and 0.125 mg/L and 2 mg/L and 1 mg/L in assay [5] (Example 6 Table 23, GN_034, compound alone, replicates, listed as MCC_000636); 0.25 μg/mL (2×) and 0.5 μg/mL and 1 μg/mL in assay [10] (Example 6 Table 23, GN_001, compound alone, replicates, listed as MCC_000636); 2 mg/L in assay [11] (Example 8 Table 31, compound alone, replicates); 0.0625 mg/L in [12]; 0.5 μg/mL and 0.25 μg/mL (3×) in assay [13]; 16 μg/mL and 8 μg/mL (3×) in assay [14] (setting [20]). In addition, the “Minimum Inhibitory Concentration (MIC)” value in assay [14] (setting [21]) was 16 μg/mL and 8 μg/mL (3×); in assay [15] (setting [20]), 0.125 μg/mL (3×) and 0.25 μg/mL; in [15] (setting [21]), 0.125 μg/mL (3×) and 0.25 μg/mL; in assay [16] (setting [20]) it was 0.5 μg/mL and 0.25 μg/mL (3×); in assay [16] (setting [21]) it was 0.5 μg/mL and 0.25 μg/mL (3×); in [7] (Example 6 Table 23, GN_042, compound alone, replicates, listed as MCC_000636), 0.5 μg/mL (2×) and 2 μg/mL (2×). In addition, the “MIC of Polymyxin B” value in assay [5] (Example 6 Table 24, GN_034) was 1 mg/L and 2 mg/L; in assay [10] (Example 6 Table 24, GN_001) it was 1 mg/L; in assay [7] (Example 6 Table 24, GN_042), 2 mg/L. The “MIC of MCC_00636” value in assay [11] (Example 8 Table 32) was found to be 2 mg/L; in [14] (Example 8 Table 32) it was 8 mg/L; in [15] (Example 8 Table 32), 1 mg/L; in assay [16] (Example 8 Table 32) it was 1 mg/L.

`CO[C@@]1(NC(=O)C2SC(=C(C(N)=O)C(=O)O)S2)C(=O)N2C(C(=O)O)=C(CSc3nnnn3C)CS[C@@H]21` (some centres unmarked) [Cefotetan]: the MIC was determined as 256 mg/L in assay [5] (ATCC19606, read-out: MIC of Cefotetan, Acinetobacter baumannii ATCC 19606); 256 mg/L in assay [5] (ATCC19606, read-out: MIC of Cefotetan, Cefotetan alone); 0.25 mg/L in assay [10] (ATCC25922, read-out: MIC of Cefotetan, Cefotetan alone); 0.25 mg/L in assay [10] (ATCC25922, read-out: MIC of Cefotetan, Escherichia coli ATCC 25922); 0.5 mg/L in assay [6] (ATCC700603, read-out: MIC of Cefotetan, Cefotetan alone); 256 mg/L in assay [7] (ATCC27853, read-out: MIC of Cefotetan). Further, the “MIC of Cefotetan” value was found to be 1 mg/L in [6] (Cefotetan alone) and 256 mg/L in assay [7] (Cefotetan alone).

For `CO/N=C(\C(=O)N[C@@H]1C(=O)N2C(C(=O)[O-])=C(C[N+]3(C)CCCC3)CS[C@H]12)c1csc(N)n1` [Cefepime], the MIC was found to be 16 mg/L in assay [5] (ATCC19606, read-out: MIC of Cefepime, Cefepime alone); 16 mg/L in [5] (ATCC19606, read-out: MIC of Cefepime, Example 5 Table 20, GN_034); 16 mg/L (≈ 33.3 µM) in assay [5] (setting [18]); 0.031 mg/L in assay [10] (ATCC25922, read-out: MIC of Cefepime, Cefepime alone); 1 mg/L in assay [6] (ATCC700603, read-out: MIC of Cefepime); 256 mg/L in assay [7] (ATCC27853, read-out: MIC of Cefepime). Besides, the “Minimum Inhibitory Concentration (MIC)” value in [5] (setting [19]) was 16 mg/L. For the same compound, the “MIC of Cefepime” value in assay [10] (Cefepime alone) came out at 0.062 mg/L.

(Values after patent US20230013669A1, “Antibacterial Treatment Using a Cannabinoid and an Active Agent” (priority 2019, published 2023).)
